According to US4060634A (Boehringer Mannheim G.m.b.H., priority 1973, dated 1977):

Experiments:
[1] = Particle surface area (BET method); assay type: physicochemical; settings: precipitated or ground glibenclamide product
[2] = Solubility of glibenclamide in water; assay type: physicochemical
blood sugar = settings: cited from earlier work

| SMILES | particle surface area [1] [m^2 /g] | also measured |
| --- | --- | --- |
| COc1ccc(Cl)cc1C(=O)NCCc1ccc(S(=O)(=O)NC(=O)NC2CCCCC2)cc1 [Example 1, glibenclamide] | 5.79 | – |
| COc1ccc(Cl)cc1C(=O)NCCc1ccc(S(=O)(=O)NC(=O)NC2CCCCC2)cc1 [Example 2, glibenclamide] | 9.8 | – |
| COc1ccc(Cl)cc1C(=O)NCCc1ccc(S(=O)(=O)NC(=O)NC2CCCCC2)cc1 [Example 3, glibenclamide] | 6.0 | – |
| COc1ccc(Cl)cc1C(=O)NCCc1ccc(S(=O)(=O)NC(=O)NC2CCCCC2)cc1 [Example 4, glibenclamide] | 6.8 | – |
| COc1ccc(Cl)cc1C(=O)NCCc1ccc(S(=O)(=O)NC(=O)NC2CCCCC2)cc1 [glibenclamide, N-4-[2-(5-chloro-2-methoxybenzamido)-ethyl]-phenyl-sulfonyl-N'-cyclohexylurea] | – | solubility in water, pH of minimum [2]: reaches a minimum at a pH of 4; blood sugar lowering action (blood sugar; among sulfonylurea derivatives): greatest hitherto known blood sugar lowering action; side effects (blood sugar; in vivo): lowest degree of side effects |

More lines, main results first:

| particle surface area [1] [m^2 /g] | SMILES | also measured |
| --- | --- | --- |
| 10.3 | COc1ccc(Cl)cc1C(=O)NCCc1ccc(S(=O)(=O)NC(=O)NC2CCCCC2)cc1 [Example 5, glibenclamide] | – |
| 5.2 | COc1ccc(Cl)cc1C(=O)NCCc1ccc(S(=O)(=O)NC(=O)NC2CCCCC2)cc1 [Example 6, glibenclamide] | – |
| 7.8 | COc1ccc(Cl)cc1C(=O)NCCc1ccc(S(=O)(=O)NC(=O)NC2CCCCC2)cc1 [Example 7, glibenclamide] | – |
| 5.8 | COc1ccc(Cl)cc1C(=O)NCCc1ccc(S(=O)(=O)NC(=O)NC2CCCCC2)cc1 [Example 8, glibenclamide] | – |
